Measurements taken from patent US10688116B2, “Treatment of metabolic disorders in equine animals” (Boehringer Ingelheim Vetmedica GmbH, priority 2014, dated 2020).

Experiment: Physicochemical properties of the crystalline complex

N#Cc1ccc([C@@H]2O[C@H](CO)[C@@H](O)[C@H](O)[C@H]2O)cc1Cc1ccc(C2CC2)cc1.O=C(O)[C@@H]1CCCN1 [crystalline complex]
tendency to absorb moisture: does not show a high tendency to absorb moisture
physical and chemical stability (various environmental conditions and during production of a medicament): high physical and chemical stability
